target: mouse TRPM3α2 (mTRPM3) ion channel (Mus musculus (Mouse), UniProt J9SQF3); experiment: TRPM3 ion channel driven Ca2+ uptake, Fluo-4 AM assay, mTRPM3alpha2 overexpressing flip-in HEK293 cells stimulated with pregnenolone sulfate; type: cell-based; conditions: PS 50 μM, cpds 200-299
Outline: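 Read-out is Ca2+ influx via Fluo-4 AM fluorescence at 485/535 nm, taken right after seeding ~2000 cells/well onto compound with 50 μM PS. Inhibition computed from RFU between vehicle-stimulated and positive-control-inhibitor wells; cells were mTRPM3α2-overexpressing flip-in HEK293.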

Chain of mouse TRPM3α2 (mTRPM3) ion channel (J9SQF3 other isoform, or with tags, fused parts or gaps): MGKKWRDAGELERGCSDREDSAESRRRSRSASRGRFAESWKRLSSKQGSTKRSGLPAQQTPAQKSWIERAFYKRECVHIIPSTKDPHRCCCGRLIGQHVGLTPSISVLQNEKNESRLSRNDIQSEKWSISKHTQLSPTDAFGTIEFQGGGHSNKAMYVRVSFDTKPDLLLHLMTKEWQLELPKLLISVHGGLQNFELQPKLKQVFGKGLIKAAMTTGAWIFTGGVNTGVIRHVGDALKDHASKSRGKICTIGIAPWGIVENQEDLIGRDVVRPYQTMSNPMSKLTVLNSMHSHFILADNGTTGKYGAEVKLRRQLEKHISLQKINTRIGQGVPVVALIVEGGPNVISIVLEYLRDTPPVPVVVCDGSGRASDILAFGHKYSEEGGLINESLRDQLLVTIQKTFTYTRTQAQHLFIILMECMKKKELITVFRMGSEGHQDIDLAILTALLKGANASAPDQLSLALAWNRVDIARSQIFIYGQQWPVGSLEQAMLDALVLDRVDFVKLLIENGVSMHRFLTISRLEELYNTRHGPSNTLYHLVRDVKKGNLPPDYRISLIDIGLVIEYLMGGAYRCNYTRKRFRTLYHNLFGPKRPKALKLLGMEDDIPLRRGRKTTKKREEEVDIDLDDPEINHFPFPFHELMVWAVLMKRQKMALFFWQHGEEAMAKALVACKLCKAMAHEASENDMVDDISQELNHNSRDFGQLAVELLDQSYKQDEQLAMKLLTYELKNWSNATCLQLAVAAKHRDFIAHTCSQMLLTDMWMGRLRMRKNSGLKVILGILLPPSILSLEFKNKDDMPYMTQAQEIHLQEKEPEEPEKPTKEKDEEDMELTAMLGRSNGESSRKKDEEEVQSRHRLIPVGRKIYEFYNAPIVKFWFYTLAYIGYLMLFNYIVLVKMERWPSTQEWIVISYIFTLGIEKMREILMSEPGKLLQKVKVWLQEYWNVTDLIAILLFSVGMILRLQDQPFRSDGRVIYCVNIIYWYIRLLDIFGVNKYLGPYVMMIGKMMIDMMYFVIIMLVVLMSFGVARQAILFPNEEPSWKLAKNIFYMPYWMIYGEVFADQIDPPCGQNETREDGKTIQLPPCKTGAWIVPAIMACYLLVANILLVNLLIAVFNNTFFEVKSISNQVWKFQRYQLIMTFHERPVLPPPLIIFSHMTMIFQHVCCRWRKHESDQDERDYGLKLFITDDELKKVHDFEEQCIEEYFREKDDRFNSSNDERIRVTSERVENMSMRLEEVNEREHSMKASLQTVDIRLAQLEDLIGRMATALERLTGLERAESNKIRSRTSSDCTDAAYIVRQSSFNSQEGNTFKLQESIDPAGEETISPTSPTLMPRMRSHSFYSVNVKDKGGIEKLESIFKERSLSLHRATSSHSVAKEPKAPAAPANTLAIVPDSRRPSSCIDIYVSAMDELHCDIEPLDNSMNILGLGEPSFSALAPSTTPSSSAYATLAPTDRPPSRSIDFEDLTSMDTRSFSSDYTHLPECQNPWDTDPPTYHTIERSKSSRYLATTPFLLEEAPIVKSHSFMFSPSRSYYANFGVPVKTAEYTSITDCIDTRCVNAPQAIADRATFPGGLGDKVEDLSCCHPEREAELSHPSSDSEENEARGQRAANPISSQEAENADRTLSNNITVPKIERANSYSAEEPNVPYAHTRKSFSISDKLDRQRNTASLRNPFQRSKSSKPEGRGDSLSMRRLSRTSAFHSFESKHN

| SMILES | IC50 [µM] |
| --- | --- |
| Cc1ncsc1COc1ccc2oc(C)c(C(=O)N[C@@H](CO)C(N)=O)c2c1 [compound 288, (S)-N-(1-amino-3-hydroxy-1-oxopropan-2-yl)-2-methyl-5-((4-methylthiazol-5-yl)methoxy)benzofuran-3-carboxamide] | < 1 |
| Cc1ncc(COc2ccc3oc(C)c(C(=O)N[C@@H](CO)C(=O)N(C)C)c3c2)s1 [compound 278, (S)-N-(1-(dimethylamino)-3-hydroxy-1-oxopropan-2-yl)-2-methyl-5-((2-methylthiazol-5-yl)methoxy)benzofuran-3-carboxamide] | < 1 |
| Cc1ncsc1COc1ccc2oc(C)c(C(=O)N[C@@H](C)C(N)=O)c2c1 [compound 279, (S)-N-(1-amino-1-oxopropan-2-yl)-2-methyl-5-((4-methylthiazol-5-yl)methoxy)benzofuran-3-carboxamide] | < 1 |

same assay, conditions: PS 50 μM, cpds 300-399

| SMILES | IC50 [µM] |
| --- | --- |
| Cc1ncsc1COc1ccc2oc(C)c(C(=O)NC3(CO)COC3)c2c1F [compound 328, 4-fluoro-N-(3-(hydroxymethyl)oxetan-3-yl)-2-methyl-5-((4-methylthiazol-5-yl)methoxy)benzofuran-3-carboxamide] | < 1 |
| Cc1ncc(COc2ccc3oc(C)c(C(=O)N[C@@H]4C(=O)NC[C@H]4O)c3c2)s1 [compound 391, N-((3S,4R)-4-hydroxy-2-oxopyrrolidin-3-yl)-2-methyl-5-((2-methylthiazol-5-yl)methoxy)benzofuran-3-carboxamide] | < 1 |
| Cc1ncsc1COc1ccc2oc(C)c(C(=O)NCCS(C)(=O)=O)c2c1 [compound 323, 2-methyl-N-(2-(methylsulfonyl)ethyl)-5-((4-methylthiazol-5-yl)methoxy)benzofuran-3-carboxamide] | < 1 |
| Cc1oc2ccc(OCc3ccnn3CC(F)F)cc2c1C(=O)NC1(CO)CCCNC1=O (single isomer, unassigned) [332-En 1, 5-((1-(2,2-difluoroethyl)-1H-pyrazol-5-yl)methoxy)-N-(3-(hydroxymethyl)-2-oxopiperidin-3-yl)-2-methylbenzofuran-3-carboxamide] | < 1 |
| Cc1ncsc1COc1ccc2oc(C)c(C(=O)NC(C)c3ncco3)c2c1 (single isomer, unassigned) [cpd 315-En 1] | < 1 |

same assay, conditions: PS (50 μM) stimulated, cpd 001-199

| SMILES | IC50 [µM] |
| --- | --- |
| Cc1cncc(COc2ccc3oc(C)c(C(=O)NC4CCNC4=O)c3c2)c1 (stereo not drawn) [compound 038, 2-methyl-5-((5-methylpyridin-3-yl)methoxy)-N-(2-oxopyrrolidin-3-yl)benzofuran-3-carboxamide] | < 1 |
| Cc1ncsc1COc1ccc2oc(C)c(C(=O)NC3(CO)CC3)c2c1 [compound 139, N-(1-(hydroxymethyl)cyclopropyl)-2-methyl-5-((4-methylthiazol-5-yl)methoxy)benzofuran-3-carboxamide] | < 1 |
| Cc1oc2ccc(OCc3nccs3)cc2c1C(=O)NC1(CO)CCOCC1 [compound 049, N-(4-(hydroxymethyl)tetrahydro-2H-pyran-4-yl)-2-methyl-5-(thiazol-2-ylmethoxy)benzofuran-3-carboxamide] | < 1 |
| Cc1oc2ccc(OCc3cccnc3C(F)(F)F)cc2c1C(=O)NC1CN(CC(F)(F)F)CC1(F)F (single isomer, unassigned) [157-En 1, N-(4,4-difluoro-1-(2,2,2-trifluoroethyl)pyrrolidin-3-yl)-2-methyl-5-((2-(trifluoromethyl)pyridin-3-yl)methoxy)benzofuran-3-carboxamide] | < 1 |
| Cc1oc2ccc(OCc3cccnc3C(F)(F)F)cc2c1C(=O)NC1(CCO)CCC1 [compound 127, N-(1-(2-hydroxyethyl)cyclobutyl)-2-methyl-5-((2-(trifluoromethyl)pyridin-3-yl)methoxy)benzo-furan-3-carboxamide] | < 1 |
| Cc1oc2c(F)cc(OCc3cccnc3C(F)(F)F)cc2c1C(=O)NC1CCNCC1(F)F (single isomer, unassigned) [cpd 176-En 1, N-(3,3-difluoropiperidin-4-yl)-7-fluoro-2-methyl-5-((2-(trifluoro-methyl)pyridin-3-yl)methoxy)benzofuran-3-carboxamide] | 1 to 20 |
| Cc1ncsc1COc1ccc2oc(C)c(C(=O)Nc3cn[nH]c3)c2c1 [compound 150, 2-methyl-5-((4-methylthiazol-5-yl)methoxy)-N-(1H-pyrazol-4-yl)benzofuran-3-carboxamide] | < 1 |
| Cc1oc2ccc(OCc3cccnc3C(F)(F)F)cc2c1C(=O)NC1CCN(CC(F)(F)F)C1 (single isomer, unassigned) [149-En 1, 2-methyl-N-(1-(2,2,2-trifluoroethyl)pyrrolidin-3-yl)-5-((2-(trifluoromethyl)pyridin-3-yl)methoxy) -benzofuran-3-carboxamide] | < 1 |
| Cc1ncsc1COc1ccc2oc(C)c(C(=O)NC3(CO)COC3)c2c1 [compound 142, N-(3-(hydroxymethyl)oxetan-3-yl)-2-methyl-5-((4-methylthiazol-5-yl)methoxy)benzofuran-3-carboxamide] | < 1 |

same assay, conditions: PS (50 μM) stimulated, cpds. 400-499

| SMILES | IC50 [µM] |
| --- | --- |
| Cc1oc2ccc(OCc3ccccn3)cc2c1C(=O)NC1(C(N)=O)CCC1 [compound 472, N-(1-carbamoylcyclobutyl)-2-methyl-5-(pyridin-2-ylmethoxy)benzofuran-3-carboxamide] | < 1 |
| Cc1oc2ccc(OCc3ccccn3)cc2c1C(=O)NC1(CO)CCC1 [compound 415, N-(1-(hydroxymethyl)cyclobutyl)-2-methyl-5-(pyridin-2-ylmethoxy)benzofuran-3-carboxamide] | < 1 |
| COc1ncccc1COc1ccc2oc(C)c(C(=O)NC3(C(N)=O)CC3)c2c1 [compound 480, N-(1-carbamoylcyclopropyl)-5-((2-methoxypyridin-3-yl)methoxy)-2-methylbenzofuran-3-carboxamide] | < 1 |
| COc1ncccc1COc1ccc2oc(C)c(C(=O)N[C@@H](C)CO)c2c1 [compound 496, (S)-N-(1-hydroxypropan-2-yl)-5-((2-methoxypyridin-3-yl)methoxy)-2-methylbenzofuran-3-carboxamide] | < 1 |
| COc1ncccc1COc1ccc2oc(C)c(C(=O)NC(C)(C)CO)c2c1 [compound 486, N-(1-hydroxy-2-methylpropan-2-yl)-5-((2-methoxypyridin-3-yl)methoxy)-2-methylbenzofuran-3-carboxamide] | < 1 |

same assay, conditions: PS (50 μM) stimulated, cpds. 500-599

| SMILES | IC50 [µM] |
| --- | --- |
| Cc1ncsc1COc1ccc2oc(C)c(C(=O)NCC(C)(C)F)c2c1 [compound 505, N-(2-fluoro-2-methylpropyl)-2-methyl-5-((4-methylthiazol-5-yl)methoxy)benzofuran-3-carboxamide] | < 1 |
| Cc1ncc(COc2ccc3oc(C)c(C(=O)NC4(C(N)=O)COC4)c3c2)s1 [compound 580, N-(3-carbamoyloxetan-3-yl)-2-methyl-5-((2-methylthiazol-5-yl)methoxy)benzofuran-3-carboxamide] | < 1 |
| Cc1ncccc1COc1ccc2oc(C)c(C(=O)NC3CCNCC3(F)F)c2c1 (single isomer, unassigned) [cpd 547-En 1] | < 1 |
| Cc1oc2ccc(OCc3cccnc3C(F)(F)F)c(C)c2c1C(=O)NC1CCNCC1(F)F (single isomer, unassigned) [cpd 538-En 1] | 1 to 20 |
| Cc1oc2ccc(OCc3ncccn3)cc2c1C(=O)NC1CCNCC1(F)F (single isomer, unassigned) [cpd 559-En 1] | 1 to 20 |

same assay, conditions: PS (50 μM) stimulated, cpds. 608-666

| SMILES | IC50 [µM] |
| --- | --- |
| Cc1oc2ccc(OCc3cncs3)cc2c1C(=O)NC1(CO)CCOCC1 [compound 627, N-(4-(hydroxymethyl)tetrahydro-2H-pyran-4-yl)-2-methyl-5-(thiazol-5-ylmethoxy)benzofuran-3-carboxamide] | < 1 |
| Cc1oc2ccc(OCc3ccc(O)nc3)cc2c1C(=O)NC1(CO)CCOCC1 [compound 631, N-(4-(hydroxymethyl)tetrahydro-2H-pyran-4-yl)-5-((6-hydroxypyridin-3-yl)methoxy)-2-methylbenzofuran-3-carboxamide] | > 20 |
| Cc1oc2ccc(OCc3c[nH]nc3C(F)(F)F)cc2c1C(=O)NC1(CO)CCOCC1 [compound 615, N-(4-(hydroxymethyl)tetrahydro-2H-pyran-4-yl)-2-methyl-5-((3-(trifluoromethyl)-1H-pyrazol-4-yl)methoxy)benzofuran-3-carboxamide] | < 1 |

same assay, conditions: PS (50 μM) stimulated, cpds. 667-751

| SMILES | IC50 [µM] |
| --- | --- |
| Cc1ncc(COc2ccc3oc(C)c(C(=O)NC4CCOCC4(F)F)c3c2)s1 (single isomer, unassigned) [cpd 724-En 2] | 1 to 20 |
| Cc1ccc(COc2ccc3oc(C)c(C(=O)N[C@@H](CO)C(N)=O)c3c2)nc1 [compound 700, (S)-N-(1-Amino-3-hydroxy-1-oxopropan-2-yl)-2-methyl-5-((5-methylpyridin-2-yl)methoxy)benzofuran-3-carboxamide] | < 1 |
| Cc1ncc(COc2ccc3oc(C(F)F)c(C(=O)N[C@@H](CO)C(N)=O)c3c2)o1 [compound 746, (S)-N-(1-amino-3-hydroxy-1-oxopropan-2-yl)-2-(difluoromethyl)-5-((2-methyloxazol-5-yl)methoxy)benzofuran-3-carboxamide] | < 1 |
| Cc1ncc(COc2ccc3oc(C)c(C(=O)NC4(C(F)F)CCC4)c3c2)s1 [compound 683, N-(1-(Difluoromethyl)cyclobutyl)-2-methyl-5-((2-methylthiazol-5-yl)methoxy)benzofuran-3-carboxamide] | < 1 |
| Cc1oc2ccc(OCc3ccccn3)cc2c1C(=O)N[C@H](C(N)=O)[C@@H](C)O [compound 718, N-((2S,3R)-1-amino-3-hydroxy-1-oxobutan-2-yl)-2-methyl-5-(pyridin-2-ylmethoxy)benzofuran-3-carboxamide] | < 1 |
| Cc1oc2ccc(OCc3cncs3)cc2c1C(=O)N[C@@H](CO)C(N)=O [compound 697, (S)-N-(1-Amino-3-hydroxy-1-oxopropan-2-yl)-2-methyl-5-(thiazol-5-ylmethoxy)benzofuran-3-carboxamide] | < 1 |
